Experimental data taken from patent US20240300946A1, “EGFR INHIBITORS” (Blueprint Medicines Corporation, priority 2021, published 2024).
Read-outs that look alike come from different tables or passages of the source.

Experiments:
[1] = system: phosphorylation of EGFR in NCI-H1975 cell line that harbors the EGFR L858R T790 M mutations; assay: NCI-H1975 pEGFR AlphaLISA assay; type: cell-based; settings: p-EGFR (Tyr1068), 4-5 hours incubation, read-out: Ext pEGFR H1975 GMean IC50 (nM) Protocol: @ Pharmaron AlphaLISA (Num)
Experimental: Inhibitory effects of the compounds of the disclosure were evaluated in cellular assays that measure level of intracellular phosphorylation of EGFR in NCI-H1975 cell line that harbors the EGFR L858R T790 M mutations (ATCC, CRL-5908) using AlphaLISA sureFire ultra p-EGFR (Tyr1068) assay kit (PerkinElmer, ALSU-PEGFR-A50K). The NCI-H1975 cells were seeded at 12.5K/well in 22 μL into 384 well opti plate (PerkinElmer, 6007299) and adhering overnight at 37° C./5% CO2. On the next day, the test compounds and DMSO control were added into H1975 cell plate followed by incubation at 37° C./5% CO2 for 4-5 hours. The cells were then spin down in the 384-well plate and lysed with 10 μL of 1× AlphaLISA lysis buffer followed by shaking at 600 rpm for 10 minutes at room temperature. After that, 5 μL of an acceptor bead mix was added to each well followed by incubation at room temperature for 1.5-2 h in dark. Then 5 μL of a donor bead mix was added to each well followed by overnight incubation at room temperature in dark. On the next day, the plate was read at a compatible plate reader to obtain pEGFR signal. Percent of pEGFR inhibition was plotted against log concentration of compounds to generate IC50 values.

[2] = target: T1, EGFR (L858R T790 M C797S) (Homo sapiens, UniProt P00533, C797S/L858R/T790M); assay: Biochemical EGFR inhibition assay (Caliper mobility shift), LRTMCS mutant at 1 mM ATP; settings: read-out: LRTMCS (PH) IC50 (nM) @ 1 mM ATP (Num)
T1 construct: purchased SignalChem E10-122VG
T1 sequence (P00533 25-1210 T790M/C797S/L858R): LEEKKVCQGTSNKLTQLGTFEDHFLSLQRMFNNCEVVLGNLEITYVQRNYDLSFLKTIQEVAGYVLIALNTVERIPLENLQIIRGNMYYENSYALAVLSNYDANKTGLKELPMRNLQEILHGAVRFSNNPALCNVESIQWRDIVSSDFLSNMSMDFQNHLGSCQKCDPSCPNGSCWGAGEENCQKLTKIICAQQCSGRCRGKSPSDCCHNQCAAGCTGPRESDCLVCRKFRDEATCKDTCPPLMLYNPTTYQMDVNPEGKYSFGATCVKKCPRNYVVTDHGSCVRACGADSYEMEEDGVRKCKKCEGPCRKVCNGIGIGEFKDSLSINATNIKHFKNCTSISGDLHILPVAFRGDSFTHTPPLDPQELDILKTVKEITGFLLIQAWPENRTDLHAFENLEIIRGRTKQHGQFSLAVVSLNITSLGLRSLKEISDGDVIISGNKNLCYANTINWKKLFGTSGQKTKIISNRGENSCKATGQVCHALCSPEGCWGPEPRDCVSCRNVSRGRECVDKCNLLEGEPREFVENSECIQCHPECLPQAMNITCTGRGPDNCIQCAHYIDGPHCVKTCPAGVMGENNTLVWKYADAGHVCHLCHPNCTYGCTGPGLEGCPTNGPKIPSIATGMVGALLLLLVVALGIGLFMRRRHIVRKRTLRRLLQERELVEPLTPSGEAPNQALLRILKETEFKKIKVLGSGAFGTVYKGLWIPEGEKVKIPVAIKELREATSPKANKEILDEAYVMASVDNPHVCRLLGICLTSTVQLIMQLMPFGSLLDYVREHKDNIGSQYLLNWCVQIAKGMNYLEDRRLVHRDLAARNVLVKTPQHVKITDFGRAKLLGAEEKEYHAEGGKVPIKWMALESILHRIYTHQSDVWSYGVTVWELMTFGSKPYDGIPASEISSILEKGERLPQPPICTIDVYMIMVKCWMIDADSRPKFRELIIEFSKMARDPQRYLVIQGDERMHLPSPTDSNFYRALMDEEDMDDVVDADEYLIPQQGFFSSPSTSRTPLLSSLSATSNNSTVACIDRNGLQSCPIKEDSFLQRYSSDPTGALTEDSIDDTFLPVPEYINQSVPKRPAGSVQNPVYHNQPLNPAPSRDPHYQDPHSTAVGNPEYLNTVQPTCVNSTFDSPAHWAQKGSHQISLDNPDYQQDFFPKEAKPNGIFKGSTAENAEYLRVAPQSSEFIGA
Experimental: Inhibitory effects of the compounds of the disclosure were measured in biochemical assays that measure the phosphorylation activity of EGFR enzyme phosphorylates 2.5 micromolar 5-FAM-[…]-CONH2 peptide substrate (FL-Peptide 22, PerkinElmer, 760366) in the presence of adenosine-5′-triphosphate (ATP) and varying concentrations of the test compound in 100 mM 2-[4-(2-hydroxyethyl)piperazin-1-yl]ethanesulfonic acid (HEPES), pH 7.5, 10 mM MgCl2, 0.015% Brij-35, 1 mM dithiothreitol (DTT), 1.0% dimethylsulfoxide (DMSO). Assays were performed at 1.0 mM ATP or at ATP Km of the EGFR enzymes. Reactions proceeded until between 10% to 20% total peptides were phosphorylated at room temperature (25° C.) and were terminated with 35 mM 2,2′,2″,2′″-(ethane-1,2-diyldinitrilo)tetraacetic acid (EDTA). Product was detected using the Caliper mobility shift detection method where the phosphorylated peptide (product) and substrate were electrophoretically separated and measured. Percent activity was plotted against log concentration of compound and points to generate an apparent IC50. The following enzyme forms of EGFR were examples that were used in these assays: • EGFR WT (SignalChem, E10-112G) • EGFR (L858R T790 M C797S) (SignalChem, E10-122VG) • EGFR (d746-750) T790 M C797S (SignalChem, E10-122UG) • EGFR L858R (SignalChem, E10-122BG) • EGFR (d746-750) (SignalChem, E10-122JG)

[3] = Homo sapiens, NCI-H1975, NCI-H1975 cells

| Structure (SMILES) | IC50 [1, 3] | IC50 [2] | IC50 ([1]; NCI-H1975 cells) |
| --- | --- | --- | --- |
| CC(C)c1ccc(N2CC(CS(C)(=O)=O)C2)c2cnc(Nc3ccnc([C@H]4C[C@@H]4C(F)F)n3)cc12 (single isomer, unassigned) [Example 16, N-(2-((1S,2S)-2-(difluoromethyl)cyclopropyl)pyrimidin-4-yl)-5-isopropyl-8-(3-((methylsulfonyl)methyl)azetidin-1-yl)isoquinolin-3-amine or N-(2-((1R,2R)-2-(difluoromethyl)cyclopropyl)pyrimidin-4-yl)-5-isopropyl-8-(3-((methylsulfonyl)methyl)azetidin-1-yl)isoquinolin-3-amine] | > 50 nM | > 100 nM | – |
| CC(C)c1ccc(N2CC(CS(C)(=O)=O)C2)c2cnc(Nc3ccnc([C@H]4C[C@@H]4C(F)F)n3)cc12 (single isomer, unassigned) [Example 17, N-(2-((1S,2S)-2-(difluoromethyl)cyclopropyl)pyrimidin-4-yl)-5-isopropyl-8-(3-((methylsulfonyl)methyl)azetidin-1-yl)isoquinolin-3-amine or N-(2-((1R,2R)-2-(difluoromethyl)cyclopropyl)pyrimidin-4-yl)-5-isopropyl-8-(3-((methylsulfonyl)methyl)azetidin-1-yl)isoquinolin-3-amine] | – | > 100 nM | > 50 nM |
| C[C@H](CO)c1ccc(N2CC(CS(C)(=O)=O)C2)c2cnc(Nc3ccnc(-c4cnn(C)c4)n3)cc12 (single isomer, unassigned) [Example 18, (S)-2-(3-((2-(1-methyl-1H-pyrazol-4-yl)pyrimidin-4-yl)amino)-8-(3-((methylsulfonyl)methyl)azetidin-1-yl)isoquinolin-5-yl)propan-1-ol or (R)-2-(3-((2-(1-methyl-1H-pyrazol-4-yl)pyrimidin-4-yl)amino)-8-(3-((methylsulfonyl)methyl)azetidin-1-yl)isoquinolin-5-yl)propan-1-ol] | > 50 nM | ≤ 15 nM | – |
| Cc1ncc(-c2nccc(Nc3cc4c(C(C)C)cnc(N5CC(CS(C)(=O)=O)C5)c4cn3)n2)s1 [Example 1, 5-isopropyl-8-(3-((methylsulfonyl)methyl)azetidin-1-yl)-N-(2-(2-methylthiazol-5-yl)pyrimidin-4-yl)-2,7-naphthyridin-3-amine] | 10 to 20 nM | ≤ 15 nM | – |
| CC(C)c1cnc(N2CC(CS(C)(=O)=O)C2)c2cnc(Nc3ccnc(-c4cnn(C)c4)n3)cc12 [Example 2, 5-isopropyl-N-(2-(1-methyl-1H-pyrazol-4-yl)pyrimidin-4-yl)-8-(3-((methylsulfonyl)methyl)azetidin-1-yl)-2,7-naphthyridin-3-amine] | 10 to 20 nM | ≤ 15 nM | – |
| CC(C)c1cnc(N2CC(CS(C)(=O)=O)C2)c2cnc(Nc3ccnc(C4(C)CC(=O)C4)n3)cc12 [Example 3, 3-(4-((5-isopropyl-8-(3-((methylsulfonyl)methyl)azetidin-1-yl)-2,7-naphthyridin-3-yl)amino)pyrimidin-2-yl)-3-methylcyclobutan-1-one] | > 50 nM | > 100 nM | – |
| CC(C)c1cnc(N2CC(CS(C)(=O)=O)C2)c2cnc(Nc3ccnc(C45CC(CO)(C4)C5)n3)cc12 [Example 4, (3-(4-((5-isopropyl-8-(3-((methylsulfonyl)methyl)azetidin-1-yl)-2,7-naphthyridin-3-yl)amino)pyrimidin-2-yl)bicyclo[1.1.1]pentan-1-yl)methanol] | > 50 nM | 15 to 20 nM | – |

Continued, values first:

| IC50 [1, 3] | IC50 [2] | IC50 ([1]; NCI-H1975 cells) | Structure (SMILES) |
| --- | --- | --- | --- |
| – | ≤ 15 nM | > 50 nM | C[C@H](CO)c1ccc(N2CC(CS(C)(=O)=O)C2)c2cnc(Nc3ccnc(-c4cnn(C)c4)n3)cc12 (single isomer, unassigned) [Example 19, (S)-2-(3-((2-(1-methyl-1H-pyrazol-4-yl)pyrimidin-4-yl)amino)-8-(3-((methylsulfonyl)methyl)azetidin-1-yl)isoquinolin-5-yl)propan-1-ol or (R)-2-(3-((2-(1-methyl-1H-pyrazol-4-yl)pyrimidin-4-yl)amino)-8-(3-((methylsulfonyl)methyl)azetidin-1-yl)isoquinolin-5-yl)propan-1-ol] |
| – | ≤ 15 nM | < 10 nM | Cc1ncc(-c2nccc(Nc3cc4c(C(C)C)ccc(N5C[C@H](CS(C)(=O)=O)[C@H]5C)c4cn3)n2)s1 (single isomer, unassigned) [Example 20, 5-isopropyl-8-(2R,3S)-2-methyl-3-((methylsulfonyl)methyl)azetidin-1-yl)-N-(2-(2-methylthiazol-5-yl)pyrimidin-4-yl)isoquinolin-3-amine or 5-isopropyl-8-((2S,3R)-2-methyl-3-((methylsulfonyl)methyl)azetidin-1-yl)-N-(2-(2-methylthiazol-5-yl)pyrimidin-4-yl)isoquinolin-3-amine] |
| – | > 100 nM | > 50 nM | Cc1ncc(-c2nccc(Nc3cc4c(C(C)C)ccc(N5C[C@H](CS(C)(=O)=O)[C@H]5C)c4cn3)n2)s1 (single isomer, unassigned) [Example 21, 5-isopropyl-8-((2S,3S)-2-methyl-3-((methylsulfonyl)methyl)azetidin-1-yl)-N-(2-(2-methylthiazol-5-yl)pyrimidin-4-yl)isoquinolin-3-amine or 5-isopropyl-8-((2S,3R)-2-menthyl-3-((methylsulfonyl)methyl)azetidin-1-yl)-N-(2-(2-methylthiazol-5-yl)pyrimidin-4-yl)isoquinolin-3-amine] |
| < 10 nM | ≤ 15 nM | – | CC(C)c1ccc(N2C[C@H](CS(C)(=O)=O)[C@H]2C)c2cnc(Nc3ccnc(-c4cccnc4)n3)cc12 (single isomer, unassigned) [Example 22, 5-isopropyl-8-((2R,3S)-2-methyl-3-((methylsulfonyl)methyl)azetidin-1-yl)-N-(2-(pyridin-3-yl)pyrimidin-4-yl)isoquinolin-3-amine or 5-isopropyl-8-((2S,3R)-2 methyl-3-((methylsulfonyl)methyl)azetidin-1-yl)-N-(2-(pyridin-3-yl)pyridin-4-yl) isoquinolin-3-amine] |
| 10 to 20 nM | ≤ 15 nM | – | CC(C)c1ccc(N2C[C@H](CS(C)(=O)=O)[C@H]2C)c2cnc(Nc3ccnc(-c4cnn(C)c4)n3)cc12 (single isomer, unassigned) [Example 23, 5-isopropyl-N-(2-(1-methyl-1H-pyrazol-4-yl)pyrmidin-4-yl)-8-((2S,3S)-2-methyl-3-((methylsulfonyl)methy)azetidin-1-yl)isoquinolin-3-amine or 5-isopropyl-N-(2-(1-methyl-1H-pyrazol-4-yl)pyrimidin-4-yl)-8-((2S,3R)-2-methyl-3-((methylsulfonyl)methyl)azetidin-1-yl)isoquinolin-3-amine] |
| > 50 nM | 30 to 100 nM | – | CC(C)c1cnc(N2CC(CS(C)(=O)=O)C2)c2cnc(Nc3ccnc([C@]4(C)C[C@@H](O)C4)n3)cc12 (single isomer, unassigned) [Example 24, (1r,3r)-3-(4-((5-isopropyl-8-(3-((methylsulfonyl)methyl)azetidin-1-yl)-2,7-naphthyridin-3-yl)amino)pyrimidin-2-yl)-3-methylcyclobutan-1-ol or (1s,3s)-3-(4-((5-isopropyl-8-(3-((methylsulfonyl)methyl)azetidin-1-yl)-2,7-naphthyridin-3-yl)amino)pyrimidin-2-yl)-3-methylcyclobutan-1-ol] |
| – | > 100 nM | > 50 nM | CC(C)c1cnc(N2CC(CS(C)(=O)=O)C2)c2cnc(Nc3ccnc([C@]4(C)C[C@@H](O)C4)n3)cc12 (single isomer, unassigned) [Example 25, (1r,3r)-3-(4-((5-isopropyl-8-(3-((methylsulfonyl)methyl)azetidin-1-yl)-2,7-naphthyridin-3-yl)amino)pyrimidin-2-yl)-3-methylcyclobutan-1-ol or (1s,3s)-3-(4-((5-isopropyl-8-(3-((methylsulfonyl)methyl)azetidin-1-yl)-2,7-naphthyridin-3-yl)amino)pyrimidin-2-yl)-3-methylcyclobutan-1-ol] |
